Data published in the supplement of paper PMC4862054.

Key:
Details in all cases: incubation time: 72 h
[1] = tested on: BT-474; test: normalised viability (% of control), CellTiter-Blue; higher = more viable cells (about 100 = DMSO control)
Protocol: (§1)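 DSRT, CellTiter-Blue viability, 72 h incubation. Signal is normalised to DMSO and benzethonium chloride controls. Value is the normalised response at dose 3.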

[2] = tested on: BT-549; test: as above
Protocol: as §1

[3] = tested on: CAL-120; test: as above
Protocol: as §1

[4] = tested on: CAL-148; test: as above
Protocol: as §1

[5] = tested on: CAL-51; test: as above
Protocol: as §1

[6] = tested on: CAL-85-1; test: as above
Protocol: as §1

[7] = tested on: DU-4475; test: as above
Protocol: as §1

[8] = tested on: HCC1143; test: as above
Protocol: as §1

[9] = tested on: HCC1599; test: as above
Protocol: as §1

[10] = tested on: HCC1937; test: as above
Protocol: as §1

[11] = tested on: HDQ-P1; test: as above
Protocol: as §1

[12] = tested on: Hs578T; test: as above
Protocol: as §1

[13] = tested on: MDA-MB-231; test: as above
Protocol: as §1

[14] = tested on: MDA-MB-436; test: as above
Protocol: as §1

[15] = tested on: MDA-MB-453; test: as above
Protocol: as §1

[16] = tested on: MDA-MB-468; test: as above
Protocol: as §1

[17] = tested on: MFM-223; test: as above
Protocol: as §1

[18] = tested on: SK-BR-3; test: as above
Protocol: as §1

[19] = tested on: BT-549; test: normalised viability (% of control), CellTiter-Blue; higher = more viable cells (about 100 = DMSO control); remark: listed apart in the source
Outline: (§2)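 The reported figure is normalised viability at a single listed concentration of the series. Breast cancer cell lines (20 µl suspension) went onto 384-well plates holding compound in 5 µl medium for 72 h. CellTiter-Blue (2.5 µl, 2 h, 37 °C) was read by fluorescence at 560/590 nm, and each plate was scaled to vehicle at 100 and a positive kill control at 0.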

[20] = tested on: CAL-148; test: as above; remark: listed apart in the source
Outline: as §2

[21] = tested on: CAL-51; test: as above; remark: listed apart in the source
Outline: as §2

[22] = tested on: DU-4475; test: as above; remark: listed apart in the source
Outline: as §2

[23] = tested on: HCC1143; test: as above; remark: listed apart in the source
Outline: as §2

[24] = tested on: HCC1599; test: as above; remark: listed apart in the source
Outline: as §2

[25] = tested on: Hs578T; test: as above; remark: listed apart in the source
Outline: as §2

[26] = tested on: MDA-MB-231; test: as above; remark: listed apart in the source
Outline: as §2

[27] = tested on: MDA-MB-468; test: as above; remark: listed apart in the source
Outline: as §2

[28] = tested on: HCC1937; test: drug sensitivity score (DSS), CellTox Green (DSS (AUC-based score)); higher = stronger drug effect (viability inhibition or cytotoxicity); extreme values may be limits of the assay
Outline: (§3)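 After 72 h of incubation in 384-well plates with compound at 5 concentrations (10-fold steps, 10,000-fold range set per compound), breast cancer cell lines seeded in 20 µl suspension were read first for CellTox Green fluorescence at 485/520 nm. CellTiter-Glo luminescence was measured next, after 10 min at room temperature. Normalisation on each plate used 0.1 % DMSO and a positive kill control, and the drug sensitivity score was computed from the area under the fitted dose-response curve.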

[29] = tested on: Hs578T; test: as above
Outline: as §3

C#Cc1cccc(Nc2ncnc3cc(OC)c(OCCCCCCC(=O)NO)cc23)c1 [CUDC-101]
Details | normalised viability [%]
[1], 100 nM | 89.2
[2], 100 nM | 97.6
[3], 100 nM | 67.1
[4], 10 nM | 83.6
[5], 10 nM | 113
[6], 10 nM | 93
[7], 10 nM | 101
[8], 100 nM | 79.7
[9], 100 nM | 83.4
[10], 100 nM | 88.8
[11], 10 nM | 86.3
[12], 100 nM | 70.2
[13], 100 nM | 91.2
[14], 100 nM | 117
[15], 10 nM | 87.4
[16], 100 nM | 66.2
[17], 100 nM | 63.3
[18], 100 nM | 58.9
[19], 10 nM | 90.3
[19], 1000 nM | 64.6
[19], 10000 nM | 9.13
[20], 3 nM | 90.4
[20], 30 nM | 89.8
[20], 100 nM | 85.2
[21], 3 nM | 117
[21], 30 nM | 108
[21], 100 nM | 105
[22], 3 nM | 84
[22], 30 nM | 84.7
[22], 100 nM | 80.8
[23], 10 nM | 78.3
[23], 1000 nM | 32.8
[23], 10000 nM | 11.6
[24], 10 nM | 78.8
[24], 1000 nM | 28.6
[24], 10000 nM | 16
[25], 10 nM | 91.3
[25], 1000 nM | 38.2
[25], 10000 nM | 5.55
[26], 10 nM | 87.8
[26], 1000 nM | 46
[26], 10000 nM | 3.42
[27], 10 nM | 100
[27], 1000 nM | 25.5
[27], 10000 nM | 8.4

Details | drug sensitivity score
[28] | 0
[29] | 2.25

COc1cccc2c1C(=O)c1c(O)c3c(c(O)c1C2=O)C[C@@](O)(C(C)=O)C[C@@H]3O[C@H]1C[C@H](N)[C@H](O)[C@H](C)O1 [Daunorubicin]
Details | normalised viability [%]
[1], 10 nM | 115
[2], 10 nM | 95.1
[3], 10 nM | 79
[4], 1 nM | 103
[5], 1 nM | 99.8
[6], 1 nM | 102
[7], 1 nM | 95.8
[8], 10 nM | 79.2
[9], 10 nM | 104
[10], 10 nM | 77.9
[11], 1 nM | 153
[12], 10 nM | 85.9
[13], 10 nM | 85.2
[14], 10 nM | 92.1
[15], 1 nM | 103
[16], 10 nM | 99.8
[17], 10 nM | 90.9
[18], 10 nM | 87.3
[19], 1 nM | 87
[19], 100 nM | 59
[19], 1000 nM | 11
[20], 0.3 nM | 88.5
[20], 3 nM | 106
[20], 10 nM | 77.6
[21], 0.3 nM | 97.1
[21], 3 nM | 92.9
[21], 10 nM | 88.2
[22], 0.3 nM | 84.7
[22], 3 nM | 86.3
[22], 10 nM | 70.7
[23], 1 nM | 81.4
[23], 100 nM | 52.7
[23], 1000 nM | 32
[24], 1 nM | 82.5
[24], 100 nM | 98.8
[24], 1000 nM | 53.7
[25], 1 nM | 111
[25], 100 nM | 64.1
[25], 1000 nM | 6.42
[26], 1 nM | 101
[26], 100 nM | 38.4
[26], 1000 nM | 8.64
[27], 1 nM | 102
[27], 100 nM | 52.2
[27], 1000 nM | 6.86

Details | drug sensitivity score
[28] | 0
[29] | 0

CN1CCN(c2ccc3nc(-c4c(N)c5c(F)cccc5[nH]c4=O)[nH]c3c2)CC1 [Dovitinib]
Details | normalised viability [%]
[1], 100 nM | 115
[2], 100 nM | 90.5
[3], 100 nM | 86.4
[4], 10 nM | 94.7
[5], 10 nM | 111
[6], 10 nM | 89.2
[7], 10 nM | 99.8
[8], 100 nM | 84.5
[9], 100 nM | 88.2
[10], 100 nM | 95.6
[11], 10 nM | 95.7
[12], 100 nM | 87
[13], 100 nM | 80.2
[14], 100 nM | 99.7
[15], 10 nM | 87.7
[16], 100 nM | 86.9
[17], 100 nM | 80.2
[18], 100 nM | 101
[19], 10 nM | 83
[19], 1000 nM | 97.1
[19], 10000 nM | 89
[20], 3 nM | 91.6
[20], 30 nM | 95.5
[20], 100 nM | 89.6
[21], 3 nM | 119
[21], 30 nM | 113
[21], 100 nM | 107
[22], 3 nM | 94.3
[22], 30 nM | 85.5
[22], 100 nM | 89.4
[23], 10 nM | 86.9
[23], 1000 nM | 87.9
[23], 10000 nM | 69.8
[24], 10 nM | 98
[24], 1000 nM | 98.8
[24], 10000 nM | 89
[25], 10 nM | 106
[25], 1000 nM | 99.3
[25], 10000 nM | 96
[26], 10 nM | 96.1
[26], 1000 nM | 75.2
[26], 10000 nM | 86.4
[27], 10 nM | 104
[27], 1000 nM | 90.6
[27], 10000 nM | 72.6

Details | drug sensitivity score
[28] | 0
[29] | 4.14

O=c1[nH]c(=O)n([C@H]2C[C@H](O)[C@@H](CO)O2)cc1F [Floxuridine]
Details | normalised viability [%]
[1], 100 nM | 117
[2], 100 nM | 93.4
[3], 100 nM | 66.2
[4], 10 nM | 99.8
[5], 10 nM | 91.8
[6], 10 nM | 93.1
[7], 10 nM | 114
[8], 100 nM | 101
[9], 100 nM | 97.2
[10], 100 nM | 84.5
[11], 10 nM | 107
[12], 100 nM | 85.8
[13], 100 nM | 97.4
[14], 100 nM | 72.6
[15], 10 nM | 98.5
[16], 100 nM | 51.9
[17], 100 nM | 92.6
[18], 100 nM | 53
[19], 10 nM | 96.5
[19], 1000 nM | 67.1
[19], 10000 nM | 44.8
[20], 3 nM | 97.6
[20], 30 nM | 54.4
[20], 100 nM | 52.8
[21], 3 nM | 108
[21], 30 nM | 64.4
[21], 100 nM | 46.6
[22], 3 nM | 107
[22], 30 nM | 107
[22], 100 nM | 69.5
[23], 10 nM | 97.5
[23], 1000 nM | 91.1
[23], 10000 nM | 61.6
[24], 10 nM | 86.9
[24], 1000 nM | 91.8
[24], 10000 nM | 81.9
[25], 10 nM | 127
[25], 1000 nM | 58.9
[25], 10000 nM | 38.9
[26], 10 nM | 106
[26], 1000 nM | 58.1
[26], 10000 nM | 47.2
[27], 10 nM | 95.5
[27], 1000 nM | 43.7
[27], 10000 nM | 30.3

Details | drug sensitivity score
[28] | 0
[29] | 0
